Test results as given in ChEMBL document CHEMBL3994643, “Synthesis and glucose-stimulate insulin secretion (GSIS) evaluation of vindoline derivatives” (Bioorg Med Chem Lett, 2017).

Test system: MIN6
Assay: Induction of glucose-stimulated insulin secretion in mouse MIN6 cells after 2 hrs by ELISA
Type: functional, cell-based
Conditions: MIN6, 2 h

Row | SMILES | EC50
1 | CC[C@]12C=CCN3CC[C@@]4(c5ccc(OC)cc5N(C)[C@H]4[C@@](O)(C(=O)OC)[C@@H]1OC(=O)c1ccccc1)[C@@H]32 | 62.2 µM
2 | CC[C@]12CCCN3CC[C@@]4(c5ccc(OC)cc5N(C)[C@H]4[C@@](O)(C(=O)OC)[C@@H]1OC(=O)C(C)C)[C@@H]32 | 14.2 µM
3 | CC[C@]12C=CCN3CC[C@@]4(c5ccc(OC)cc5N(C)[C@H]4[C@@](O)(COC(=O)C(C)C)[C@@H]1OC(C)=O)[C@@H]32 | > 100 µM
4 | CCC(=O)OC[C@@]1(O)[C@H](OC(C)=O)[C@]2(CC)C=CCN3CC[C@@]4(c5ccc(OC)cc5N(C)[C@@H]14)[C@@H]32 | 51 µM
5 | CCOC[C@@]1(O)[C@H](OC(C)=O)[C@]2(CC)C=CCN3CC[C@@]4(c5ccc(OC)cc5N(C)[C@@H]14)[C@@H]32 | 11 µM
6 | CC[C@]12C=CCN3CC[C@@]4(c5ccc(OC)cc5N(C)[C@H]4[C@@](O)(C(=O)OC)[C@@H]1OC)[C@@H]32 | > 100 µM
7 | CCC(=O)NC[C@@]1(O)[C@H](OC(C)=O)[C@]2(CC)C=CCN3CC[C@@]4(c5ccc(OC)cc5N(C)[C@@H]14)[C@@H]32 | 12.7 µM
8 | CCCOC[C@@]1(O)[C@H](OC(C)=O)[C@]2(CC)C=CCN3CC[C@@]4(c5ccc(OC)cc5N(C)[C@@H]14)[C@@H]32 | 41.5 µM
9 | CCC(=O)O[C@@H]1[C@]2(CC)C=CCN3CC[C@@]4(c5ccc(OC)cc5N(C)[C@H]4[C@@]1(O)C(=O)OC)[C@@H]32 | 32.6 µM
10 | CC[C@]12C=CCN3CC[C@@]4(c5ccc(OC)cc5N(C)[C@H]4[C@@](O)(COC)[C@@H]1OC(C)=O)[C@@H]32 | 41 µM
11 | CCO[C@@H]1[C@]2(CC)C=CCN3CC[C@@]4(c5ccc(OC)cc5N(C)[C@H]4[C@@]1(O)C(=O)OC)[C@@H]32 | 62.2 µM
12 | CC[C@]12C=CCN3CC[C@@]4(c5ccc(OC)cc5N(C)[C@H]4[C@@](O)(CNC(=O)C(C)(C)C)[C@@H]1OC(C)=O)[C@@H]32 | 21 µM
13 | CCC(=O)NC[C@@]1(O)[C@H](OC(=O)C(C)C)[C@]2(CC)C=CCN3CC[C@@]4(c5ccc(OC)cc5N(C)[C@@H]14)[C@@H]32 | 18.5 µM
14 | CC[C@]12C=CCN3CC[C@@]4(c5ccc(OC)cc5N(C)[C@H]4[C@@](O)(C(=O)OC)[C@@H]1O)[C@@H]32 | > 100 µM
15 | CCC(=O)O[C@@H]1[C@]2(CC)CCCN3CC[C@@]4(c5ccc(OC)cc5N(C)[C@H]4[C@@]1(O)C(=O)OC)[C@@H]32 | 38.5 µM
16 | CC[C@]12C=CCN3CC[C@@]4(c5ccc(OC)cc5N(C)[C@H]4[C@@](O)(C(=O)OC)[C@@H]1OC(=O)C(C)C)[C@@H]32 | 10.4 µM
17 | CCCO[C@@H]1[C@]2(CC)C=CCN3CC[C@@]4(c5ccc(OC)cc5N(C)[C@H]4[C@@]1(O)C(=O)OC)[C@@H]32 | 64.3 µM
18 | CC[C@]12C=CCN3CC[C@@]4(c5ccc(OC)cc5N(C)[C@H]4[C@@](O)(C(=O)OC)[C@@H]1OC(C)=O)[C@@H]32 | 50.2 µM
19 | CC[C@]12C=CCN3CC[C@@]4(c5ccc(OC)cc5N(C)[C@H]4[C@@](O)(C(=O)OC)[C@@H]1OC(=O)C1CCCCC1)[C@@H]32 | 80.5 µM
20 | CCOC[C@@]1(O)[C@H](OC(=O)C(C)C)[C@]2(CC)C=CCN3CC[C@@]4(c5ccc(OC)cc5N(C)[C@@H]14)[C@@H]32 | 14.2 µM
21 | CC[C@]12C=CCN3CC[C@@]4(c5ccc(OC)cc5N(C)[C@H]4[C@@](O)(CNC(C)=O)[C@@H]1OC(C)=O)[C@@H]32 | 19.3 µM
22 | CCCCO[C@@H]1[C@]2(CC)C=CCN3CC[C@@]4(c5ccc(OC)cc5N(C)[C@H]4[C@@]1(O)C(=O)OC)[C@@H]32 | > 100 µM
23 | CCCCOC[C@@]1(O)[C@H](OC(C)=O)[C@]2(CC)C=CCN3CC[C@@]4(c5ccc(OC)cc5N(C)[C@@H]14)[C@@H]32 | > 100 µM
